What was measured:
Experiment in all cases: relative viability (nuclei count vs DMSO), 5 days (fraction); higher = more cells survive
COR-L23 = tested on: COR-L23
Outline: (§1)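 Relative viability equals treated-well nuclei counts divided by vehicle-well nuclei counts. Counts came from 4× images of lung cancer cell lines grown in 1536-well plates for 5 days after pin-tool dosing on the day after seeding. Dosing used one drug alone or a fixed anchor-drug dose plus five library-drug doses (not always all listed) in √10 steps, and values are medians of duplicate plates.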

ChaGo-K-1 = tested on: ChaGo-K-1
Outline: as §1

EPLC-272H = tested on: EPLC-272H
Outline: as §1

H3255 = tested on: H3255
Outline: as §1

HARA = tested on: HARA
Outline: as §1

HCC-78 = tested on: HCC-78
Outline: as §1

HOP-62 = tested on: HOP-62
Outline: as §1

LCLC-97TM1 = tested on: LCLC-97TM1
Outline: as §1

LXF-289 = tested on: LXF-289
Outline: as §1

NCI-H1395 = tested on: NCI-H1395
Outline: as §1

NCI-H1437 = tested on: NCI-H1437
Outline: as §1

NCI-H1650 = tested on: NCI-H1650
Outline: as §1

NCI-H1666 = tested on: NCI-H1666
Outline: as §1

NCI-H1793 = tested on: NCI-H1793
Outline: as §1

NCI-H1944 = tested on: NCI-H1944
Outline: as §1

NCI-H2085 = tested on: NCI-H2085
Outline: as §1

NCI-H2087 = tested on: NCI-H2087
Outline: as §1

NCI-H2126 = tested on: NCI-H2126
Outline: as §1

NCI-H3122 = tested on: NCI-H3122
Outline: as §1

NCI-H441 = tested on: NCI-H441
Outline: as §1

NCI-H596 = tested on: NCI-H596
Outline: as §1

NCI-H661 = tested on: NCI-H661
Outline: as §1

PC-14 = tested on: PC-14
Outline: as §1

Cc1csc(=NC2CCCCC2)n1/N=C/c1ccc(O)c(O)c1O [MIM1] + Nc1nc2[nH]cc(CCc3ccc(C(=O)N[C@@H](CCC(=O)O)C(=O)O)cc3)c2c(=O)[nH]1 [Pemetrexed] (partner 0.2 µM)
relative viability (COR-L23; first compound 0.2 µM): 0.208 | relative viability (COR-L23; first compound 0.6325 µM): 0.194 | relative viability (COR-L23; first compound 2 µM): 0.191 | relative viability (COR-L23; first compound 6.325 µM): 0.19 | relative viability (COR-L23; first compound 20 µM): 0.198 | relative viability (ChaGo-K-1; first compound 0.2 µM): 0.255 | relative viability (ChaGo-K-1; first compound 0.6325 µM): 0.269 | relative viability (ChaGo-K-1; first compound 2 µM): 0.263 | relative viability (ChaGo-K-1; first compound 6.325 µM): 0.257 | relative viability (ChaGo-K-1; first compound 20 µM): 0.189 | relative viability (EPLC-272H; first compound 0.2 µM): 0.328 | relative viability (EPLC-272H; first compound 0.6325 µM): 0.372 | relative viability (EPLC-272H; first compound 2 µM): 0.27 | relative viability (EPLC-272H; first compound 6.325 µM): 0.157 | relative viability (EPLC-272H; first compound 20 µM): 0.166 | relative viability (H3255; first compound 0.2 µM): 0.539 | relative viability (H3255; first compound 0.6325 µM): 0.553 | relative viability (H3255; first compound 2 µM): 0.532 | relative viability (H3255; first compound 6.325 µM): 0.556 | relative viability (H3255; first compound 20 µM): 0.312 | relative viability (HARA; first compound 0.2 µM): 0.22 | relative viability (HARA; first compound 0.6325 µM): 0.261 | relative viability (HARA; first compound 2 µM): 0.237 | relative viability (HARA; first compound 6.325 µM): 0.234 | relative viability (HARA; first compound 20 µM): 0.149 | relative viability (HCC-78; first compound 0.2 µM): 0.851 | relative viability (HCC-78; first compound 2 µM): 0.927 | relative viability (HCC-78; first compound 6.325 µM): 0.858 | relative viability (HCC-78; first compound 20 µM): 0.919 | relative viability (HOP-62; first compound 0.2 µM): 0.362 | relative viability (HOP-62; first compound 0.6325 µM): 0.34 | relative viability (HOP-62; first compound 2 µM): 0.385 | relative viability (HOP-62; first compound 6.325 µM): 0.328 | relative viability (HOP-62; first compound 20 µM): 0.127 | relative viability (LCLC-97TM1; first compound 0.2 µM): 0.147 | relative viability (LCLC-97TM1; first compound 0.6325 µM): 0.142 | relative viability (LCLC-97TM1; first compound 2 µM): 0.167 | relative viability (LCLC-97TM1; first compound 6.325 µM): 0.172 | relative viability (LCLC-97TM1; first compound 20 µM): 0.054 | relative viability (LXF-289; first compound 0.2 µM): 0.9 | relative viability (LXF-289; first compound 0.6325 µM): 0.737 | relative viability (LXF-289; first compound 2 µM): 0.891 | relative viability (LXF-289; first compound 6.325 µM): 0.715 | relative viability (LXF-289; first compound 20 µM): 0.453 | relative viability (NCI-H1395; first compound 0.2 µM): 0.848 | relative viability (NCI-H1395; first compound 0.6325 µM): 0.743 | relative viability (NCI-H1395; first compound 2 µM): 0.8 | relative viability (NCI-H1395; first compound 6.325 µM): 0.697 | relative viability (NCI-H1395; first compound 20 µM): 0.341 | relative viability (NCI-H1437; first compound 0.2 µM): 0.29 | relative viability (NCI-H1437; first compound 0.6325 µM): 0.317 | relative viability (NCI-H1437; first compound 2 µM): 0.348 | relative viability (NCI-H1437; first compound 6.325 µM): 0.235 | relative viability (NCI-H1437; first compound 20 µM): 0.154 | relative viability (NCI-H1650; first compound 0.2 µM): 0.341 | relative viability (NCI-H1650; first compound 0.6325 µM): 0.393 | relative viability (NCI-H1650; first compound 2 µM): 0.363 | relative viability (NCI-H1650; first compound 6.325 µM): 0.191 | relative viability (NCI-H1650; first compound 20 µM): 0.202 | relative viability (NCI-H1666; first compound 0.2 µM): 0.853 | relative viability (NCI-H1666; first compound 0.6325 µM): 0.848 | relative viability (NCI-H1666; first compound 2 µM): 0.826 | relative viability (NCI-H1666; first compound 6.325 µM): 0.666 | relative viability (NCI-H1666; first compound 20 µM): 0.627 | relative viability (NCI-H1793; first compound 0.2 µM): 0.937 | relative viability (NCI-H1793; first compound 2 µM): 1.13 | relative viability (NCI-H1793; first compound 6.325 µM): 0.848 | relative viability (NCI-H1793; first compound 20 µM): 0.936 | relative viability (NCI-H1944; first compound 0.2 µM): 0.586 | relative viability (NCI-H1944; first compound 0.6325 µM): 0.613 | relative viability (NCI-H1944; first compound 2 µM): 0.478 | relative viability (NCI-H1944; first compound 6.325 µM): 0.381 | relative viability (NCI-H1944; first compound 20 µM): 0.233 | relative viability (NCI-H2085; first compound 0.2 µM): 0.903 | relative viability (NCI-H2085; first compound 0.6325 µM): 0.873 | relative viability (NCI-H2085; first compound 2 µM): 0.885 | relative viability (NCI-H2085; first compound 6.325 µM): 0.777 | relative viability (NCI-H2085; first compound 20 µM): 0.833 | relative viability (NCI-H2087; first compound 0.2 µM): 0.593 | relative viability (NCI-H2087; first compound 0.6325 µM): 0.724 | relative viability (NCI-H2087; first compound 2 µM): 0.729 | relative viability (NCI-H2087; first compound 6.325 µM): 0.601 | relative viability (NCI-H2087; first compound 20 µM): 0.644 | relative viability (NCI-H2126; first compound 0.2 µM): 0.643 | relative viability (NCI-H2126; first compound 0.6325 µM): 0.67 | relative viability (NCI-H2126; first compound 2 µM): 0.675 | relative viability (NCI-H2126; first compound 6.325 µM): 0.563 | relative viability (NCI-H2126; first compound 20 µM): 0.399 | relative viability (NCI-H3122; first compound 0.2 µM): 0.195 | relative viability (NCI-H3122; first compound 0.6325 µM): 0.194 | relative viability (NCI-H3122; first compound 2 µM): 0.219 | relative viability (NCI-H3122; first compound 6.325 µM): 0.148 | relative viability (NCI-H3122; first compound 20 µM): 0.245 | relative viability (NCI-H441; first compound 0.2 µM): 0.259 | relative viability (NCI-H441; first compound 0.6325 µM): 0.27 | relative viability (NCI-H441; first compound 2 µM): 0.256 | relative viability (NCI-H441; first compound 6.325 µM): 0.232 | relative viability (NCI-H441; first compound 20 µM): 0.159 | relative viability (NCI-H596; first compound 0.2 µM): 0.608 | relative viability (NCI-H596; first compound 0.6325 µM): 0.537 | relative viability (NCI-H596; first compound 2 µM): 0.536 | relative viability (NCI-H596; first compound 6.325 µM): 0.512 | relative viability (NCI-H596; first compound 20 µM): 0.471 | relative viability (NCI-H661; first compound 0.2 µM): 0.676 | relative viability (NCI-H661; first compound 0.6325 µM): 0.908 | relative viability (NCI-H661; first compound 2 µM): 0.975 | relative viability (NCI-H661; first compound 6.325 µM): 0.651 | relative viability (NCI-H661; first compound 20 µM): 0.562 | relative viability (PC-14; first compound 0.2 µM): 0.137 | relative viability (PC-14; first compound 0.6325 µM): 0.124 | relative viability (PC-14; first compound 2 µM): 0.151 | relative viability (PC-14; first compound 6.325 µM): 0.156 | relative viability (PC-14; first compound 20 µM): 0.111
